Assay results reported in PMC3198036 (Frontiers in Pharmacology, 2011).
Where “and” joins values, the source holds several entries; their conditions need not be identical. Equal values may be shown once. Where a name gives a salt, the structure may show the parent alone. Read-outs that look alike come from different tables or passages of the source.

Key:
[1] = biological target: nicotinic acetylcholine receptors (nAChRs), [^3H]-epibatidine binding sites in rat cerebral cortex
[2] = biological target: nicotinic acetylcholine receptors (nAChRs), [^3H]-epibatidine binding sites in rat cerebral cortex; test: Homogenate binding assay with [^3H]-epibatidine, rat cerebral cortex homogenates
[3] = system: nicotinic acetylcholine receptors (nAChRs), [^3H]-epibatidine binding sites in rat cerebellum
[4] = biological target: nicotinic acetylcholine receptors (nAChRs), [^3H]-epibatidine binding sites in rat cerebellum; remark: listed apart in the source
[5] = system: nAChRs ([^3H]-epibatidine binding sites) in rat cortex and cerebellum; conditions: in vivo

Row | SMILES | pKihigh [1] | pKilow [1] | pKihigh [2] | pKilow [2] | Competition in the [^3H]-epibatidine binding assay [1] | Competition in the [^3H]-epibatidine binding assay [2] | pKi (single site; one-site fit) [2] | further results
1 | O=c1cccc2n1C[C@@H]1CNC[C@H]2C1 [Cytisine, cytisine] | 8.7 ± 0.1 | 6.7 ± 0.1 | 9.4 ± 0.0 | 7.2 ± 0.2 |  |  |  | 
2 | CO[C@H]1CC=C2CCN3CCC4=C(CC(=O)OC4)[C@]23C1 [Dihydro-β-erythroidine, dihydro-β-erythroidine] | 7.1 ± 0.1 | 5.7 ± 0.2 | 7.7 ± 0.2 | 6.3 ± 0.1 |  |  |  | 
3 | C[N+](C)(C)CCCCCC[N+](C)(C)C [Hexamethonium, hexamethonium chloride] |  |  |  |  | competitive | competitive | 4.0 ± 0.1 | pKi (single site; cell spans pKihigh and pKilow columns) [1]: 3.4 ± 0.1
4 | CNC1(C)C2CCC(C2)C1(C)C (stereo not drawn) [Mecamylamine, mecamylamine hydrochloride] |  |  |  |  | failed to compete | failed to compete |  | pKi (single site; cell spans pKihigh and pKilow columns) ([1]; cortex segments, 400 pM [^3H]-epibatidine, 28 h, 4°C): NI (NI, no inhibition); pKi (single site; one-site fit) ([2]; cortex homogenates, 200 pM [^3H]-epibatidine, 5 h, 4°C): NI (NI, no inhibition)
5 | CN1CCC[C@H]1c1cccnc1 [Nicotine, nicotine] | 7.8 ± 0.2 and 7.9 ± 0.1 | 6.3 ± 0.2 and 6.5 ± 0.1 |  |  |  |  | 8.4 ± 0.1 | pKi [2]: 8.1 ± 0.1; pKi (single site; cell spans pKihigh and pKilow columns) [3]: 7.1 ± 0.2; pKihigh [4]: 8.2 ± 0.1; pKilow [4]: 6.3 ± 0.1; Upregulation of nAChRs [5]: no upregulation
